{
  "source": "patent US6440963B1",
  "about": "“Use of selective COX-2 inhibitors for the treatment of urinary incontinence” (Recordati S.A., Chemical and Pharmaceutical Company, priority 2001, dated 2002)",
  "key": {"[1]": {"system": "rhythmic bladder voiding contractions", "assay": "Volume-induced rhythmic bladder voiding contractions in anaesthetized rats", "type": "in vivo, rat", "conditions": "for Bladder quiescence (min ± S.E.): 60 min observation; for ED10 min (dose inducing a 10 min absence of bladder contractions) / Potency in inhibiting bladder voiding contractions (ED10min) compared with morphine: i.v.; for ED10 min (dose inducing a 10 min absence of bladder contractions): linear regression analysis; for Potency in inhibiting bladder voiding contractions (ED10min) compared with morphine: relative to morphine", "experimental": "In this method, the urinary bladder is catheterized through the external urethra with a polyethylene tubing filled with physiological saline. The external urethra is then ligated and connected to a pressure recording device. […] Test compounds are then administered intravenously and their effect evaluated for the following 60 min.\nThe animals were housed with free access to food and water and maintained on a 12 h alternating light-dark cycle at 22-24° C. for at least one week, except during the experiment. […] The catheter was then tied in place with a ligature around the external urethral orifice and connected to a conventional pressure transducer (Statham P23 ID/P23 XL). […] The bladder was then filled via the recording catheter with incremental volumes of warm (37° C.) saline until reflex bladder voiding contractions occurred (usually upon addition of 0.8-1.5 ml saline).\nBioactivity was assessed in individual animals (using 6-10 rats per dose) by measuring the duration of bladder quiescence (i.e., the duration of time during which no contractions occurred) over a 60 min period."}, "detrusor instability": {"system": "detrusor instability", "conditions": "cited from earlier work; for Effect in patients with detrusor instability: double-blind controlled studies; for Gastrointestinal side effects: patients with detrusor instability"}, "[2]": {"system": "bladder contractions elicited by arachidonic acid", "conditions": "arachidonic acid on serosal surface of bladder; cited from earlier work"}, "bladder reflexes": {"system": "bladder reflexes", "conditions": "following surgery or experimentally-induced inflammation; cited from earlier work"}, "[3]": {"system": "isolated rat bladder strips", "conditions": "1×10^−4M, 40 mM potassium; cited from earlier work"}},
  "data": [
    {"smiles": "COc1ccc2c(c1)c(CC(=O)O)c(C)n2C(=O)c1ccc(Cl)cc1", "note": "[Indomethacin]", "values": [
      {"measurement": "Bladder quiescence (min ± S.E.)", "setting": "[1]; 0.3 mg/kg i.v.", "result": "4.39 ± 1.08", "unit": "min"},
      {"measurement": "Bladder quiescence (min ± S.E.)", "setting": "[1]; 1.0 mg/kg i.v.", "result": "7.91 ± 1.79", "unit": "min"},
      {"measurement": "Bladder quiescence (min ± S.E.)", "setting": "[1]; 3.0 mg/kg i.v.", "result": "35.00 ± 5.78", "unit": "min"},
      {"measurement": "ED10 min (dose inducing a 10 min absence of bladder contractions)", "setting": "[1]", "result": "ED10 min = 0.652 mg/kg"},
      {"measurement": "Effect in patients with detrusor instability", "setting": "detrusor instability", "result": "favorable effects"},
      {"measurement": "Gastrointestinal side effects", "setting": "detrusor instability", "result": "high incidence of gastrointestinal side effects"}
    ]},
    {"smiles": "C[C@H](C(=O)O)c1cccc(C(=O)c2ccccc2)c1", "note": "[dexketoprofen]", "values": [
      {"measurement": "Effect on bladder contractions elicited by arachidonic acid", "setting": "[2]", "result": "blocked"}
    ]},
    {"smiles": "CN1CC[C@]23c4c5ccc(O)c4O[C@H]2[C@@H](O)C=C[C@H]3[C@H]1C5", "note": "[Morphine]", "values": [
      {"measurement": "Bladder quiescence (min ± S.E.)", "setting": "[1]; 0.01 mg/kg i.v.", "result": "2.76 ± 0.93", "unit": "min"},
      {"measurement": "Bladder quiescence (min ± S.E.)", "setting": "[1]; 0.03 mg/kg i.v.", "result": "6.89 ± 2.11", "unit": "min"},
      {"measurement": "Bladder quiescence (min ± S.E.)", "setting": "[1]; 0.1 mg/kg i.v.", "result": "13.83 ± 2.40", "unit": "min"},
      {"measurement": "Bladder quiescence (min ± S.E.)", "setting": "[1]; 0.3 mg/kg i.v.", "result": "18.17 ± 3.60", "unit": "min"},
      {"measurement": "ED10 min (dose inducing a 10 min absence of bladder contractions)", "setting": "[1]", "result": "ED10 min = 0.050 mg/kg"}
    ]},
    {"smiles": "CS(=O)(=O)Nc1ccc([N+](=O)[O-])cc1OC1CCCCC1", "note": "[NS-398]", "values": [
      {"measurement": "Effect on bladder reflexes", "setting": "bladder reflexes", "result": "normalized bladder reflexes"}
    ]},
    {"smiles": "Cc1ccc(-c2cc(C(F)(F)F)nn2-c2ccc(S(N)(=O)=O)cc2)cc1", "note": "[Compound B]", "values": [
      {"measurement": "Bladder quiescence (min ± S.E.)", "setting": "[1]; 0.01 mg/kg i.v.", "result": "4.05 ± 0.68", "unit": "min"},
      {"measurement": "Bladder quiescence (min ± S.E.)", "setting": "[1]; 0.1 mg/kg i.v.", "result": "10.53 ± 2.04", "unit": "min"},
      {"measurement": "Bladder quiescence (min ± S.E.)", "setting": "[1]; 1.0 mg/kg i.v.", "result": "28.35 ± 5.19", "unit": "min"},
      {"measurement": "ED10 min (dose inducing a 10 min absence of bladder contractions)", "setting": "[1]", "result": "ED10 min = 0.044 mg/kg"},
      {"measurement": "Potency in inhibiting bladder voiding contractions (ED10min) compared with morphine", "setting": "[1]", "result": "similar"}
    ]},
    {"smiles": "CS(=O)(=O)c1ccc(C2=C(c3ccccc3)C(=O)OC2)cc1", "note": "[Compound C]", "values": [
      {"measurement": "Bladder quiescence (min ± S.E.)", "setting": "[1]; 0.03 mg/kg i.v.", "result": "3.75 ± 0.96", "unit": "min"},
      {"measurement": "Bladder quiescence (min ± S.E.)", "setting": "[1]; 0.1 mg/kg i.v.", "result": "4.85 ± 1.80", "unit": "min"},
      {"measurement": "Bladder quiescence (min ± S.E.)", "setting": "[1]; 0.3 mg/kg i.v.", "result": "16.44 ± 6.13", "unit": "min"},
      {"measurement": "ED10 min (dose inducing a 10 min absence of bladder contractions)", "setting": "[1]", "result": "ED10 min = 0.135 mg/kg"},
      {"measurement": "Potency in inhibiting bladder voiding contractions (ED10min) compared with morphine", "setting": "[1]", "result": "slightly lower"}
    ]},
    {"smiles": "CS(=O)(=O)Nc1ccc([N+](=O)[O-])cc1Oc1ccccc1", "note": "[nimesulide]", "values": [
      {"measurement": "Inhibition of contractility", "setting": "[3]", "result": 42, "unit": "%"}
    ]},
    {"smiles": "CC(C(=O)O)c1ccc(-c2ccccc2)c(F)c1", "note": "(centres unmarked) [flurbiprofen]", "values": [
      {"measurement": "Effect in patients with detrusor instability", "setting": "detrusor instability", "result": "favorable effects"},
      {"measurement": "Gastrointestinal side effects", "setting": "detrusor instability", "result": "high incidence of gastrointestinal side effects"}
    ]}
  ]
}
